Drawing on the Kinase Knowledgebase extract (Sharma et al. 2016), this text covers Ki for 75 compounds.

One may read the Ki as the equilibrium dissociation constant of an inhibitor or competing ligand from its target. Low readings indicate a stronger hold on the target, high ones a looser hold on the target.

The target of this assay is PIK3CG (human) (UniProt P48736). Description: Assessment of PIK3CG Kinase Activity.
Chain of PIK3CG (human) (P48736 whole entry, looked up): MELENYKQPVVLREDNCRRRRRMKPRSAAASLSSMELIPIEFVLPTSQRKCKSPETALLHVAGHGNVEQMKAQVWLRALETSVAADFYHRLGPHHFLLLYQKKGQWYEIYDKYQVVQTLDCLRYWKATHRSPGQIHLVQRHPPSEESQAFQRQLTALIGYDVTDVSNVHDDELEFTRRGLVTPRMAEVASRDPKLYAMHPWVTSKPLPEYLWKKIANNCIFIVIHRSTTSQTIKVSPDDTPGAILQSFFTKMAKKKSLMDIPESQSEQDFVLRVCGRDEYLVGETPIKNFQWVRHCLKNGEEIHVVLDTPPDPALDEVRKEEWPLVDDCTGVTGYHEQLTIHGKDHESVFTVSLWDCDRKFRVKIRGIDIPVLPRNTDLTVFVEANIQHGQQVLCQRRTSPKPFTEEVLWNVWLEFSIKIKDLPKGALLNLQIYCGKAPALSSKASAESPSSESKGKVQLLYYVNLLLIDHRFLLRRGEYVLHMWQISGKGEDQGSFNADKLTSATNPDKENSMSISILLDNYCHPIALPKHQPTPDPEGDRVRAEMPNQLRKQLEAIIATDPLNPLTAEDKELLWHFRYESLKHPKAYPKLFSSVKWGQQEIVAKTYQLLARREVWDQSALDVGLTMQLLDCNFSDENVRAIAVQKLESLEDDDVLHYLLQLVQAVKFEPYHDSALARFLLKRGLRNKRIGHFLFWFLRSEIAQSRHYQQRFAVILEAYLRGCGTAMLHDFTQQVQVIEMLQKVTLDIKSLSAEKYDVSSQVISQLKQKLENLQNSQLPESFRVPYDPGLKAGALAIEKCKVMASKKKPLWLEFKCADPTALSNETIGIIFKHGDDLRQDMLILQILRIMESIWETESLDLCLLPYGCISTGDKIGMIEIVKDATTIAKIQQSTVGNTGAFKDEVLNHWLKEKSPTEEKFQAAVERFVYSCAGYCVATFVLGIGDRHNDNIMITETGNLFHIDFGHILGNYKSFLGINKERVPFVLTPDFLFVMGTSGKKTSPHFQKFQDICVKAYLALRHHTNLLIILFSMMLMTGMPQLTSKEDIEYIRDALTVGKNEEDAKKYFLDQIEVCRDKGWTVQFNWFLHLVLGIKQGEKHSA
Regarding `CCc1ccc(OCCNC(=O)Nc2nc(C)c(C#Cc3ccncc3)s2)cc1`, the Ki lay within 50 to 250 nM.
Regarding `Cc1nc(NC(=O)NCCC(=O)OC(C)(C)C)sc1C#Cc1ccccc1`, the Ki was < 50 nM.
For `Cc1nc(NC(=O)NCCOCC2CC2)sc1C#Cc1cc(F)ncc1Cl` the value was < 50 nM.
Turning to `Cc1nc(NC(=O)NCc2ccccn2)sc1C#Cc1ccncc1`, the Ki was < 50 nM.
In turn, `Cc1nc(NC(=O)NCCc2nccs2)sc1C#Cc1ccncc1` registered a Ki of 50 to 250 nM.
Compound `Cc1nc(NC(=O)NCCC(=O)NCC(F)(F)F)sc1C#Cc1ccccc1` gave a Ki of 50 to 250 nM.
For `CCn1cnc(CCNC(=O)Nc2nc(C)c(C#Cc3ccncc3)s2)c1Cl` the value was < 50 nM; for `Cc1nc(NC(=O)N2CCC(OCc3ccccc3)C2)sc1C#Cc1ccncc1` (stereo not given), 50 to 250 nM; for `CCc1ccc(CCNC(=O)Nc2nc(C)c(C#Cc3ccncc3)s2)nc1`, < 50 nM.
For `CC(=O)N1CC(C(=O)Nc2nc(C)c(C#Cc3ccncc3)s2)C1`, the Ki is 50 to 250 nM.
Then `Cc1nc(NC(=O)NCCC(=O)NCC(F)(F)F)sc1C#Cc1ccncc1`, with < 50 nM.
Then `CCCOCCOC(=O)Nc1nc(C)c(C#Cc2ccncc2)s1`, with < 50 nM; and `Cc1nc(NC(=O)NCCCOCC2CC2)sc1C#Cc1ccncc1`, with 50 to 250 nM.
Take `Cc1nc(NC(=O)NCCOc2ccc(F)cc2)sc1C#Cc1ccncc1`: the Ki is < 50 nM.
For `Cc1nc(NC(=O)NCCC2CCCCO2)sc1C#Cc1ccncc1` (stereo not given) the value was < 50 nM.
`COc1ccc(C#Cc2sc(NC(=O)NCCOCC3CC3)nc2C)nc1OC`: the Ki is < 50 nM.
`CC(=O)Nc1nc(C)c(C#Cc2cccc(F)c2)s1`: the Ki lay in the range of 50 to 250 nM.
As to `COc1ccc(CNC(=O)Nc2nc(C)c(C#Cc3ccncc3)s2)cc1`, the Ki was < 50 nM.
In the case of `Cc1nc(NC(=O)NCCc2cn(C(C)C)cn2)sc1C#Cc1ccncc1`, the Ki was < 50 nM.
For `Cc1nc(NC(=O)NCCOCC2CC2)sc1C#Cc1cccc2ncccc12` the value was < 50 nM.
As to `CCCOCCNC(=O)Nc1nc(C)c(C#Cc2ccncc2)s1`, the Ki is < 50 nM.
As to `CC(=O)Nc1nc(C)c(C#Cc2ccncc2)s1`, the Ki was < 50 nM.
In turn, `Cc1nc(NC(=O)CCCc2cc[nH]c2)sc1C#Cc1ccncc1` yielded a Ki of 50 to 250 nM.
In the case of `Cc1nc(NC(=O)NCCOCC2CC2)sc1C#Cc1cccnc1`, the Ki is < 50 nM.
`Cc1nc(NC(=O)NCCOCC2CC2)sc1C#Cc1ccn(C)c(=O)c1` yielded a Ki of 50 to 250 nM.
Take `CC(=O)Nc1nc(C)c(C#Cc2cccc(N)c2)s1`: the Ki was 50 to 250 nM.
For `Cc1nc(NC(=O)NCCOCC2CC2)sc1C#Cc1ccncc1F`, the Ki was < 50 nM.
For `COc1cc(C#Cc2sc(NC(=O)NCCOCC3CC3)nc2C)cnc1Cl` the value was 50 to 250 nM.
`Cc1nc(NC(=O)NCCC(=O)NC(C)C)sc1C#Cc1ccncc1`: the Ki is < 50 nM.
Take `Cc1nc(NC(=O)NCC2CCCCO2)sc1C#Cc1ccncc1` (stereo not given): the Ki was < 50 nM.
Then `COc1ncc(C#Cc2sc(NC(=O)NCCOCC3CC3)nc2C)cn1`, with < 50 nM.
Regarding `Cc1nc(NC(=O)NCCOc2cccc(Cl)c2)sc1C#Cc1ccncc1`, the Ki was < 50 nM.
Turning to `CCc1nc(NC(C)=O)sc1C#Cc1ccncc1`, the Ki was 50 to 250 nM.
For `Cc1nc(NC(=O)NC[C@H](C)O)sc1C#Cc1ccncc1` the value was < 50 nM; for `CCOC(=O)CCNC(=O)Nc1nc(C)c(C#Cc2ccncc2)s1`, < 50 nM.
`Cc1nc(NC(=O)NCCc2cn(CC(F)F)cn2)sc1C#Cc1ccccc1`: the Ki was 50 to 250 nM.
`Cc1nc(NC(=O)NCCn2nnc3ccccc32)sc1C#Cc1ccncc1` had a Ki of 50 to 250 nM.
Turning to `CCn1cc(CCNC(=O)Nc2nc(C)c(C#Cc3ccncc3)s2)cn1`, the Ki is < 50 nM.
For `Cc1nc(NC(=O)NCCO)sc1C#Cc1ccncc1`, the Ki was < 50 nM.
Then `CCOC(=O)N1CCC(OC(=O)Nc2nc(C)c(C#Cc3ccncc3)s2)CC1`, with 50 to 250 nM; and `Cc1nc(NC(=O)NCCOCC2CC2)sc1C#Cc1cnc2ncccc2c1`, with < 50 nM.
`CCOC(=O)CCCNC(=O)Nc1nc(C)c(C#Cc2ccncc2)s1`: the Ki was < 50 nM.
Take `COCCNC(=O)Nc1nc(C)c(C#Cc2ccncc2)s1`: the Ki is < 50 nM.
With `Cc1nc(NC(=O)NCC(F)(F)F)sc1C#Cc1ccncc1`, the Ki is 50 to 250 nM.
For the compound `Cc1nc(NC(=O)NCCOCC2CCCC2)sc1C#Cc1ccncc1`, the Ki is < 50 nM.
Take `COc1ccc(C#Cc2sc(NC(=O)NCCOCC3CC3)nc2C)cn1`: the Ki was in the range of 50 to 250 nM.
Compound `Cc1nc(NC(=O)NCCc2cn(CC(F)F)cn2)sc1C#Cc1ccccc1Cl` yielded a Ki of 50 to 250 nM.
The compound `Cc1nc(NC(=O)CCCC(=O)NCC(F)F)sc1C#Cc1ccncc1` gave a Ki of 50 to 250 nM.
For `Cc1nc(NC(=O)NCC2CCCO2)sc1C#Cc1ccncc1` (stereo not given) the value was < 50 nM; for `Cc1nc(NC(=O)NCCc2ncn(CC(F)F)c2Cl)sc1C#Cc1ccncc1`, < 50 nM.
As to `Cc1nc(NC(=O)NC2COc3ccccc3C2)sc1C#Cc1ccncc1` (stereo not given), the Ki was in the range of 50 to 250 nM.
For `Cc1nc(NC(=O)COCc2ccccc2)sc1C#Cc1ccncc1` the value was 50 to 250 nM.
Take `CCOC(=O)[C@H]1CCC[C@H]1NC(=O)Nc1nc(C)c(C#Cc2ccncc2)s1`: the inhibition constant Ki fell in the range of 50 to 250 nM.
In the case of `COc1ccc(C#Cc2sc(NC(=O)NCCOCC3CC3)nc2C)cc1OC`, the inhibition constant Ki was < 50 nM.
Consider `CCCn1cnc(CCNC(=O)Nc2nc(C)c(C#Cc3ccncc3)s2)c1`, for which the Ki is < 50 nM.
For `CCc1cnn(CCNC(=O)Nc2nc(C)c(C#Cc3ccncc3)s2)c1` the value was < 50 nM; for `COc1cncc(C#Cc2sc(NC(=O)NC[C@H](C)OCC3CC3)nc2C)c1`, < 50 nM; for `COc1cc(C#Cc2sc(NC(=O)NCCOc3ccccn3)nc2C)cnc1OC`, < 50 nM.
As to `CCc1cnc(CCNC(=O)Nc2nc(C)c(C#Cc3cncc(OC)c3)s2)s1`, the Ki was < 50 nM.
For `CCOCCNC(=O)Nc1nc(C)c(C#Cc2ccccc2)s1`, the Ki was < 50 nM.
Take `Cc1nc(NC(=O)NCCCOCC(F)(F)F)sc1C#Cc1ccncc1`: the Ki was 50 to 250 nM.
Then `Cc1nc(NC(=O)NCC2Cc3ccccc3O2)sc1C#Cc1ccncc1` (stereo not given), with < 50 nM; and `Cc1nc(NC(=O)NCCc2cn(CCF)cn2)sc1C#Cc1ccncc1`, with < 50 nM.
In the case of `Cc1nc(NC(=O)NCCOc2cccc(F)c2)sc1C#Cc1ccncc1`, the Ki was < 50 nM.
With `Cc1nc(NC(=O)NCCOCC2CC2)sc1C#Cc1cc(Cl)ncc1F`, the Ki was < 50 nM.
As for `COc1cncc(C#Cc2sc(NC(=O)NC[C@H](C)O)nc2C)c1`, the Ki is < 50 nM.
For `Cc1nc(NC(=O)COc2ccccc2)sc1C#Cc1ccncc1` the value was 50 to 250 nM.
For `CC(=O)Nc1nc(C)c(C#Cc2cncc(C(F)(F)F)c2)s1` the value was 50 to 250 nM; for `COC1CN(C(=O)Nc2nc(C)c(C#Cc3ccncc3)s2)C1`, < 50 nM.
With `Cc1nc(NC(=O)NCCC2COCCO2)sc1C#Cc1ccncc1` (stereo not given), the Ki was < 50 nM.
Consider `Cc1nc(NC(=O)NCCC(=O)N(C)CC(F)(F)F)sc1C#Cc1ccccc1`, for which the Ki lay within 50 to 250 nM.
In the case of `Cc1nc(NC(=O)NCCc2cn(CC(F)(F)F)cn2)sc1C#Cc1ccccc1`, the Ki is < 50 nM.
`Cc1nc(NC(=O)NCCOCC2CC2)sc1C#Cc1cncc(C(F)(F)F)c1` displayed a Ki of 50 to 250 nM.
For `Cc1nc(NC(=O)NCCOCCN2CCOCC2)sc1C#Cc1ccncc1` the value was 50 to 250 nM; for `CC(=O)Nc1nc(C)c(C#Cc2ccccc2)s1`, 50 to 250 nM.
